Measured values: US10857105B2, “Compounds and compositions for intracellular delivery of therapeutic agents” (ModernaTX, Inc., priority 2017, dated 2020)

Legend:
[1] = Encapsulation efficiency of RNA in nanoparticle compositions (RIBOGREEN assay); format: physicochemical; conditions: Table 1A; lipid:DSPC:cholesterol:PEG-DMG 50:10:38.5:1.5 mol %
Experimental: For nanoparticle compositions including an RNA, a QUANT-IT™ RIBOGREEN® RNA assay (Invitrogen Corporation Carlsbad, Calif.) can be used to evaluate the encapsulation of an RNA by the nanoparticle composition. The samples are diluted to a concentration of approximately 5 μg/mL, in a TE buffer solution (10 mM Tris-HCl, 1 mM EDTA, pH 7.5). 50 μL of the diluted samples are transferred to a polystyrene 96 well plate and either 50 μL of TE buffer or 50 μL of a 2% Triton X-100 solution is added to the wells. The plate is incubated at a temperature of 37° C. for 15 minutes. The RIBOGREEN® reagent is diluted 1:100 in TE buffer, and 100 μL of this solution is added to each well. The fluorescence intensity can be measured using a fluorescence plate reader (Wallac Victor 1420 Multilabel Counter; Perkin Elmer, Waltham, Mass.) at an excitation wavelength of, for example, about 480 nm and an emission wavelength of, for example, about 520 nm. The fluorescence values of the reagent blank are subtracted from that of each of the samples and the percentage of free RNA is determined by dividing the fluorescence intensity of the intact sample (without addition of Triton X-100) by the fluorescence value of the disrupted sample (caused by the addition of Triton X-100).
(§1) Initial studies were performed to compare the delivery efficiency of nanoparticle compositions including various compounds according to Formula (I), (IA), (IB), (II), (IIa), (IIb), (IIc), (IId), (IIe), (IIf), (IIg), or (III). The cationic lipid MC3 is a current standard in the art. Accordingly, the standard MC3 formulation including about 50 mol % MC3, about 10 mol % DSPC, about 38.5 mol % cholesterol, and about 1.5 mol % PEG-DMG was used as a basis for this study. Nanoparticle compositions including DSPC as a phospholipid, cholesterol as a structural lipid, PEG-DMG as a PEG lipid, an RNA, and a compound according to Formula (I), (IA), (IB), (II), (IIa), (IIb), (IIc), (IId), (IIe), (IIf), (IIg), or (III) selected from Compounds 1-159, 168-170, and 173-175 were prepared according to or via methods similar to those described in Examples 1 and 2. The ratios of the lipids were 50:10:38.5:1.5 mol % for the lipid according to Formula (I), (IA), (IB), (II), (IIa), (IIb), (IIc), (IId), (IIe), (IIf), (IIg), or (III):DSPC:cholesterol:PEG-DMG. The RNA used was an mRNA encoding luciferase (Luc) or hEPO, wherein each uridine was replaced N1-methyl pseudouridine. Tables 1A-1E summarize the content and characteristics of the formulations.

[2] = system: luciferase (Luc) mRNA; assay: Luciferase expression (whole body bioluminescence) after intravenous administration to mice; format: in vivo
Experimental: In order to monitor how effectively various nanoparticle compositions deliver therapeutic and/or prophylactics to targeted cells, different nanparticle compositions including a particular therapeutic and/or prophylactic (for example, a modified or naturally occurring RNA such as an mRNA) are prepared and administered to rodent populations. Mice are intravenously, intramuscularly, intraarterially, or intratumorally administered a single dose including a nanoparticle composition with a formulation such as those provided in Example 3. In some instances, mice may be made to inhale doses. Dose sizes may range from 0.001 mg/kg to 10 mg/kg, where 10 mg/kg describes a dose including 10 mg of a therapeutic and/or, prophylactic in a nanoparticle composition for each 1 kg of body mass of the mouse. A control composition including PBS may also be employed.
Upon administration of nanoparticle compositions to mice, dose delivery profiles, dose responses, and toxicity of particular formulations and doses thereof can be measured by enzyme-linked immunosorbent assays (ELISA), bioluminescent imaging, or other methods. For nanoparticle compositions including mRNA, time courses of protein expression can also be evaluated. Samples collected from the rodents for evaluation may include blood, sera, and tissue (for example, muscle tissue from the site of an intramuscular injection and internal tissue); sample collection may involve sacrifice of the animals.
The efficacy of the nanoparticle compositions presented in Table 1A was evaluated with a bioluminescence study. Formulations were administered intravenously to mice (n=6) at a dosage of 0.5 mg/kg (mpk) and bioluminescence measured at 3, 6, and 24 hour time points. The standard MC3 formulation and, in some instances, a control (e.g., a PBS control) were evaluated for comparison. […] In general, flux decreased as time progressed to less than 10% of the initial flux.
The total flux (measured by area under the curve, AUC) induced by administration of a formulation including a given lipid relative to that induced by administration of a formulation including MC3 was also measured for several lipids.

[3] = system: modified luciferase; assay: Luciferase expression in liver, lung, spleen and femur 6 hours after intravenous administration to mice; format: in vivo; conditions: 6 hours after intravenous 0.5 mpk, mice
Experimental: The efficacy of the nanoparticle compositions presented in Table 1A was further evaluated by measuring the expression of modified luciferase in the liver, lung, spleen, and femur upon administration of a given composition. Formulations were administered intravenously to mice (n=3) at a dosage of 0.5 mpk and bioluminescence measured after 6 hours. The standard MC3 formulation and a PBS control were also tested. […] Flux in the liver was lowest for compositions including Compounds 58, 59, 137, and 141. Flux in the spleen was highest for compositions including Compounds 4, 7, 33, 34, 48, 53, 108, 129, 130, and 148, and lowest for compositions including Compounds 9, 59, 124, and 141.

[4] = Particle size and polydispersity index of nanoparticle compositions (Zetasizer Nano ZS); format: physicochemical
Experimental: A Zetasizer Nano ZS (Malvern Instruments Ltd, Malvern, Worcestershire, UK) can be used to determine the particle size, the polydispersity index (PDI) and the zeta potential of the nanoparticle compositions in 1×PBS in determining particle size and 15 mM PBS in determining zeta potential.
as §1

[5] = Table 1A, lipid:DSPC:cholesterol:PEG-DMG 50:10:38.5:1.5 mol %
[6] = intravenous administration (Table 3D)

| SMILES | EE [1] [%] | Size [4, 5] [nm] | Size ([4]; Table 1C, compositions for subcutaneous administration) [nm] | AUC ([2]; i.v. administration (Table 3C)) [h*p/s] | Total Flux, Liver [3] | Total Flux, Lung [3] | Total Flux, Spleen [3] | Novel lipid/MC3 ratio, i.v. ([2]; Table 3G, intravenous, luciferase, 6 hr. timepoint, relative to MC3) | Novel lipid/MC3 expression ratio, i.v. ([2]; intravenous, luciferase, 6 hr. time point, relative to MC3 formulation) | AUC [2, 6] [p/s*h] |
| --- | --- | --- | --- | --- | --- | --- | --- | --- | --- | --- |
| CCCCCCCCOP(=O)(OCCCCCCCC)OCCCCCCCN(CCO)CCCCCCCC(=O)OC(C)CCCCCCCC (stereo not drawn) [Compound 132, Decan-2-yl 8-((7-((bis(octyloxy)phosphoryl)oxy)heptyl)(2-hydroxyethyl)amino)octanoate] | 30.77 | – | – | 1.75E+10 | 1.49E+08 | 1.39E+07 | 3.37E+08 | – | – | – |
| CCCCCCCCCOC(=O)CCCCCCCN(CCCCCCCC(=O)OC(CCCCCCCC)CCCCCCCC)CCCNC(=S)NC [Compound 113, Heptadecan-9-yl 8-((3-(3-methylthioureido)propyl)(8-(nonyloxy)-8-oxooctyl)amino)octanoate] | – | 86.8 | 83.9 | – | 1.11E+09 | 5.55E+06 | 5.22E+07 | 0.59 | 0.59 | – |
| CCCCCCCCC(CCCCCCCC)OC(=O)CCCCCCCN(C)CCCCCCCCCC(=O)OCCCCCCC [Compound 149, Heptyl 10-((8-(heptadecan-9-yloxy)-8-oxooctyl)(methyl)amino)decanoate] | – | 62.1 | – | – | 1.11E+09 | 2.69E+06 | 2.71E+07 | – | – | 1.057E+011 |
| CCCCCCCCCOC(=O)CCCCCCCN(CCO)CCCCCCC/C=C\C(CCCCCCCC)CCCCCCCC [Compound 152, Nonyl (Z)-8-((2-hydroxyethyl)(10-octyloctadec-8-en-1-yl)amino)octanoate] | – | 62.6 | – | – | 1.43E+08 | 3.16E+05 | 6.63E+06 | – | – | 2.855E+010 |
| CCCCCCCCCOC(=O)CCCCCCCN(CCO)CCCCCCCCCC(CCCCCCCC)CCCCCCCC [Compound 153, Nonyl 8-((2-hydroxyethyl)(10-octyloctadecyl)amino)octanoate] | – | 83.7 | – | – | 1.18E+09 | 6.42E+06 | 1.42E+08 | – | – | 2.697E+011 |
| CCCCCCCCCOC(=O)CCCCCCCN(CCCCCCCC(=O)OC(CCCCCCCC)CCCCCCCC)CCN1CCN(C)CC1 [Compound 101, Heptadecan-9-yl 8-((2-(4-methylpiperazin-1-yl)ethyl)(8-(nonyloxy)-8-oxooctyl)amino)octanoate] | – | 91.7 | – | 1.8E+09 | 1.27E+07 | 1.77E+05 | 5.60E+06 | – | – | – |
| CCCCCCCCCCCOC(=O)CCCCCN(CCO)CCCCCCCC(=O)N(CCCCCCCC)CCCCCCCC [Compound 129, Undecyl 6-((8-(dioctylamino)-8-oxooctyl)(2-hydroxyethyl)amino)hexanoate] | 77.2 | 86.3 | – | – | 6.65E+08 | 9.89E+06 | 5.09E+08 | – | – | – |
| CCCCCCCCCOC(=O)CCCCCCCN(CCO)CCN(CCO)CCCCCCCC(=O)OC(CCCCCCCC)CCCCCCCC [Compound 159, Heptadecan-9-yl 8-((2-hydroxyethyl)(2-((2-hydroxyethyl)(8-(nonyloxy)-8-oxooctyl)amino)ethyl)amino)octanoate] | – | 75.9 | – | – | 1.13E+06 | 2.17E+05 | 7.24E+05 | – | – | 1.355E+008 |
| CCCCCCCCC(CCCCCCCC)OC(=O)CCCCCCCN(CCO)CCCC(=O)OC(CCCCCC)CCCCCCCC (stereo not drawn) [Compound 73, Heptadecan-9-yl 8-((2-hydroxyethyl)(4-oxo-4-(pentadecan-7-yloxy)butyl)amino)octanoate] | 95.7 | 59.2 | – | – | 7.93E+08 | 6.17E+06 | 9.45E+06 | – | – | – |

More lines, main results first:

| EE [1] [%] | Size [4, 5] [nm] | Size ([4]; Table 1C, compositions for subcutaneous administration) [nm] | SMILES | AUC ([2]; i.v. administration (Table 3C)) [h*p/s] | Total Flux, Liver [3] | Total Flux, Lung [3] | Total Flux, Spleen [3] | Novel lipid/MC3 ratio, i.v. ([2]; Table 3G, intravenous, luciferase, 6 hr. timepoint, relative to MC3) | Novel lipid/MC3 expression ratio, i.v. ([2]; intravenous, luciferase, 6 hr. time point, relative to MC3 formulation) | AUC [2, 6] [p/s*h] |
| --- | --- | --- | --- | --- | --- | --- | --- | --- | --- | --- |
| – | 76.7 | – | CCCCCCCCC(CCCCCCCC)OC(=O)CCCCCCCN(CCO)CCCCCCCC(=O)OC1CCC(CCCCC)CC1 (stereo not drawn) [Compound 66, Heptadecan-9-yl 8-((2-hydroxyethyl)(8-oxo-8-((4-pentylcyclohexyl)oxy)octyl)amino)octanoate] | 6.76E+11 | 5.01E+09 | 4.20E+06 | 2.00E+07 | – | – | – |
| 95.66 | 107.3 | – | CCCCCCCCCOC(=O)CCCCCCCN(CCO)CCCCCCCC(=O)OC(CCCCC)CCCCCCCC (stereo not drawn) [Compound 33, nonyl 8-((2-hydroxyethyl)(8-oxo-8-(tetradecan-6-yloxy)octyl)amino) octanoate] | – | 1.78E+10 | 2.92E+07 | 3.77E+08 | – | – | – |
| 95.4 | 99.2 | – | CCCCCCCCCOC(=O)CCCCCCCN(CCO)CCCCCCCC(=O)OC1CCCCCCCCCCCCCC1 [Compound 81, Cyclopentadecyl 8-((2-hydroxyethyl)(8-(nonyloxy)-8-oxooctyl)amino)octanoate] | – | 2.74E+08 | 6.23E+06 | 4.49E+07 | – | – | – |
| 95.8 | 125.4 | – | CCCCCCCCC(CCCCCCCC)OC(=O)CCCCCCCN(CCO)CCCC(=O)OCCCCCC [Compound 53, heptadecan-9-yl 8-((4-(hexyloxy)-4-oxobutyl)(2-hydroxyethyl)amino) octanoate] | – | 2.02E+09 | 2.47E+07 | 8.54E+08 | – | – | – |
| 90.7 | 118 | – | CCCCCCCCCOC(=O)CCCCCCCN(CCO)CCCCCCCC(=O)OC1CCC(C2CCCCC2)CC1 (stereo not drawn) [Compound 80, [1,1′-Bi(cyclohexan)]-4-yl 8-((2-hydroxyethyl)(8-(nonyloxy)-8-oxooctyl)amino)octanoate] | – | 1.09E+07 | 8.97E+04 | 4.71E+06 | – | – | – |
